Assay results from patent US11384055B2 (BIOMARIN PHARMACEUTICAL INC., priority 2017, dated 2022).

What follows are compounds tested against T1, Human GO (Homo sapiens, UniProt Q9UJM8) (assay: GO enzymatic assay (coupled fluorescence/HRP assay, glycolate substrate)). Settings: Table 2; read-out: Range (range of IC50 values calculated from the enzymatic assays).
T1 construct: purchased Novus Biologicals NBP1-72412
T1 sequence (Q9UJM8 1-370): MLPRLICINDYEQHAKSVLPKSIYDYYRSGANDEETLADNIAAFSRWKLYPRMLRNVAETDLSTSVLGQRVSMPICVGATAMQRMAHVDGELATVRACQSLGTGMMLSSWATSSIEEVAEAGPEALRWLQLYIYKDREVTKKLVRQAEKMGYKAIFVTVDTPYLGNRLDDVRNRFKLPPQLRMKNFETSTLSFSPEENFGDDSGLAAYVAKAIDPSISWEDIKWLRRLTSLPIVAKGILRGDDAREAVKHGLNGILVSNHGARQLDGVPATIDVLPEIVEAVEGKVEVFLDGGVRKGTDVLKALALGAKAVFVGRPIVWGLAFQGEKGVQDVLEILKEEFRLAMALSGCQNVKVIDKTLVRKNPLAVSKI
Assay type: biochemical
Procedure, shortened: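 Human GO incubated with glycolate substrate in 50 mM potassium phosphate, pH 7, with varying inhibitor concentrations. Activity read by coupled HRP fluorescence. IC50 taken from variable-slope sigmoidal dose-response fits of percent inhibition relative to DMSO control.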

Compound | IC50 [nM]
O=C(O)c1[nH]nnc1COc1ccc(-c2cc(Cl)cc(Cl)c2)cc1 [Compound 299, 4-(((3′,5′-dichloro-[1,1′-biphenyl]-4-yl)oxy)methyl)-1H-1,2,3-triazole-5-carboxylic acid] | < 100
O=C(O)c1[nH]nnc1COc1ccc(-c2ccc(OC(F)(F)F)c(Cl)c2)cc1 [Compound 300, 4-(((3′-chloro-4′-(trifluoromethoxy)-[1,1′-biphenyl]-4-yl)oxy)methyl)-1H-1,2,3-triazole-5-carboxylic acid] | < 100
O=C(O)c1[nH]nnc1Oc1ccc(N2CCC(F)(F)CC2)cc1 [Compound 301, 4-(4-(4,4-difluoropiperidin-1-yl)phenoxy)-1H-1,2,3-triazole-5-carboxylic acid 2,2,2-trifluoroacetate] | 100 to 1000
O=C(O)c1[nH]nnc1SC1CCC2(CCCC2)CC1 [Compound 311, 4-(spiro[4.5]decan-8-ylthio)-1H-1,2,3-triazole-5-carboxylic acid 2,2,2-trifluoroacetate] | < 100
O=C(O)c1[nH]nnc1CSc1ccc(-c2ccc(OC(F)(F)F)cc2)cc1 [Compound 312, 4-(((4′-(trifluoromethoxy)-[1,1′-biphenyl]-4-yl)thio)methyl)-1H-1,2,3-triazole-5-carboxylic acid 2,2,2-trifluoroacetate] | < 100
CCC(=O)OCOC(=O)c1[nH]nnc1Sc1ccc(-c2ccc(N3CCCCC3)cc2)cc1 [Compound 313, (propionyloxy)methyl 4-((4′-(piperidin-1-yl)-[1,1′-biphenyl]-4-yl)thio)-1H-1,2,3-triazole-5-carboxylate 2,2,2-trifluoroacetate] | 1000 to 10000
O=C(O)c1[nH]nnc1SC1CCC2(CCCCC2)CC1 [Compound 315, 4-(spiro[5.5]undecan-3-ylthio)-1H-1,2,3-triazole-5-carboxylic acid 2,2,2-trifluoroacetate] | < 100
O=C(O)c1[nH]nnc1SCc1ccc(N2CCCCC2)c2ccccc12 [Compound 316, 4-(((4-(piperidin-1-yl)naphthalen-1-yl)methyl)thio)-1H-1,2,3-triazole-5-carboxylic acid 2,2,2-trifluoroacetate] | < 100
O=C(OCOC(=O)C1CCCCC1)c1[nH]nnc1Sc1ccc(-c2ccc(N3CCCCC3)cc2)cc1 [Compound 317, ((cyclohexanecarbonyl)oxy)methyl 4-((4′-(piperidin-1-yl)-[1,1′-biphenyl]-4-yl)thio)-1H-1,2,3-triazole-5-carboxylate 2,2,2-trifluoroacetate] | > 10000
O=C(O)c1[nH]nnc1Sc1ccc(-c2ccc(N3CCC(F)(F)CC3)cc2)cc1 [Compound 319, 4-((4′-(4,4-difluoropiperidin-1-yl)-[1,1′-biphenyl]-4-yl)thio)-1H-1,2,3-triazole-5-carboxylic acid 2,2,2-trifluoroacetate] | < 100
O=C(O)c1[nH]nnc1SC1Cc2ccc(OC(F)(F)F)cc2C1 (centres unmarked) [Compound 320, 4-((5-(trifluoromethoxy)-2,3-dihydro-1H-inden-2-yl)thio)-1H-1,2,3-triazole-5-carboxylic acid] | < 100
O=C(O)c1[nH]nnc1Sc1ccc(-c2ccc(OC(F)(F)F)cn2)cc1 [Compound 321, 4-((4-(5-(trifluoromethoxy)pyridin-2-yl)phenyl)thio)-1H-1,2,3-triazole-5-carboxylic acid 2,2,2-trifluoroacetate] | < 100
O=C(O)c1[nH]nnc1SC1CCN(c2ccc(C(F)(F)F)cc2)CC1 [Compound 324] | < 100
O=C(O)c1[nH]nnc1CSc1ccc(-c2cc(Cl)cc(Cl)c2)cc1 [Compound 328, 4-(((3′,5′-dichloro-[1,1′-biphenyl]-4-yl)thio)methyl)-1H-1,2,3-triazole-5-carboxylic acid] | < 100
O=C(O)c1[nH]nnc1CSc1ccc(-c2ccc(OC(F)(F)F)c(Cl)c2)cc1 [Compound 329, 4-(((3′-chloro-4′-(trifluoromethoxy)-[1,1′-biphenyl]-4-yl)thio)methyl)-1H-1,2,3-triazole-5-carboxylic acid] | < 100

Now from value to compound:

IC50 [nM] | Compound
< 100 | O=C(O)c1[nH]nnc1OCC1CCC(c2ccc(OC(F)(F)F)cc2)CC1 (centres unmarked) [Compound 298, 4-((4-(4-(trifluoromethoxy)phenyl)cyclohexyl)methoxy)-1H-1,2,3-triazole-5-carboxylic acid]
> 10000 | O=C(OCOC(=O)C1CCCCC1)c1[nH]nnc1O[C@H]1CC[C@H](c2ccc(OC(F)(F)F)cc2)CC1 [Compound 303, ((cyclohexanecarbonyl)oxy)methyl 4-(((trans)-4-(4-(trifluoromethoxy)phenyl)cyclohexyl)oxy)-1H-1,2,3-triazole-5-carboxylate]
< 100 | O=C(O)c1[nH]nnc1O[C@H]1CC[C@@H](c2cc(Cl)cc(Cl)c2)CC1 [Compound 304, 4-(((1s,4s)-4-(3,5-dichlorophenyl)cyclohexyl)oxy)-1H-1,2,3-triazole-5-carboxylic acid]
> 10000 | O=C(OCOC(=O)c1[nH]nnc1O[C@H]1CC[C@H](c2ccc(OC(F)(F)F)cc2)CC1)c1ccccc1 [Compound 305, (benzoyloxy)methyl 4-(((trans)-4-(4-(trifluoromethoxy)phenyl)cyclohexyl)oxy)-1H-1,2,3-triazole-5-carboxylate]
100 to 1000 | O=C(O)c1[nH]nnc1Oc1ccc(C2CCC(N3CCCCC3)CC2)cc1 (centres unmarked) [Compound 306, 4-(4-(4-(piperidin-1-yl)cyclohexyl)phenoxy)-1H-1,2,3-triazole-5-carboxylic acid 2,2,2-trifluoroacetate]
1000 to 10000 | CC(C)C(=O)OCOC(=O)c1[nH]nnc1O[C@H]1CC[C@H](c2ccc(OC(F)(F)F)cc2)CC1 [Compound 307, (isobutyryloxy)methyl 4-(((trans)-4-(4-(trifluoromethoxy)phenyl)cyclohexyl)oxy)-1H-1,2,3-triazole-5-carboxylate]
< 100 | O=C(O)c1[nH]nnc1O[C@H]1CC[C@@H](c2ccc(Cl)c(Cl)c2)CC1 [Compound 308-1, 4-(((cis)-4-(3,4-dichlorophenyl)cyclohexyl)oxy)-1H-1,2,3-triazole-5-carboxylic acid]
< 100 | O=C(O)c1[nH]nnc1O[C@H]1CC[C@H](c2ccc(Cl)c(Cl)c2)CC1 [Compound 308-2, 4-(((trans)-4-(3,4-dichlorophenyl)cyclohexyl)oxy)-1H-1,2,3-triazole-5-carboxylic acid]
< 100 | O=C(O)c1[nH]nnc1Oc1ccc(Cl)c(OCC2CCCCC2)c1 [Compound 309, 4-(4-chloro-3-(cyclohexylmethoxy)phenoxy)-1H-1,2,3-triazole-5-carboxylic acid]
< 100 | O=C(O)c1[nH]nnc1O[C@H]1CC[C@@H](c2ccc(C(F)(F)F)cc2)CC1 [Compound 310, 4-(((cis)-4-(4-(trifluoromethyl)phenyl)cyclohexyl)oxy)-1H-1,2,3-triazole-5-carboxylic acid]
< 100 | O=C(O)c1[nH]nnc1SC1CCC(c2ccc(OC(F)(F)F)cc2)C1 (centres unmarked) [Compound 314, 4-((3-(4-(trifluoromethoxy)phenyl)cyclopentyl)thio)-1H-1,2,3-triazole-5-carboxylic acid]
< 100 | O=C(O)c1[nH]nnc1Sc1ccc(Cl)c(OC(F)(F)F)c1 [Compound 318, 4-((4-chloro-3-(trifluoromethoxy)phenyl)thio)-1H-1,2,3-triazole-5-carboxylic acid]
< 100 | O=C(O)c1[nH]nnc1CSc1ccc(-c2ccc(Cl)c(Cl)c2)cc1 [Compound 322, 4-(((3′,4′-dichloro-[1,1′-biphenyl]-4-yl)thio)methyl)-1H-1,2,3-triazole-5-carboxylic acid 2,2,2-trifluoroacetate]
< 100 | O=C(O)c1[nH]nnc1SC1CCN(c2ccc(Cl)c(Cl)c2)CC1 [Compound 323, 4-((1-(3,4-dichlorophenyl)piperidin-4-yl)thio)-1H-1,2,3-triazole-5-carboxylic acid 2,2,2-trifluoroacetate]
< 100 | O=C(O)c1[nH]nnc1SC1CCN(c2cc(Cl)cc(Cl)c2)CC1 [Compound 325, 4-((1-(3,5-dichlorophenyl)piperidin-4-yl)thio)-1H-1,2,3-triazole-5-carboxylic acid 2,2,2-trifluoroacetate]
< 100 | O=C(O)c1[nH]nnc1SC1CCC(c2cccc(OC(F)(F)F)c2)CC1 (centres unmarked) [Compound 326, 4-((4-(3-(trifluoromethoxy)phenyl)cyclohexyl)thio)-1H-1,2,3-triazole-5-carboxylic acid]
< 100 | O=C(O)c1[nH]nnc1SC1CCC(c2cccc(C(F)(F)F)c2)CC1 (centres unmarked) [Compound 327, 4-((4-(3-(trifluoromethyl)phenyl)cyclohexyl)thio)-1H-1,2,3-triazole-5-carboxylic acid]
< 100 | O=C(O)c1[nH]nnc1SC1CCN(c2cc(Cl)ccc2Cl)CC1 [Compound 330, 4-((1-(2,5-dichlorophenyl)piperidin-4-yl)thio)-1H-1,2,3-triazole-5-carboxylic acid]
< 100 | O=C(O)c1[nH]nnc1S[C@H]1CC[C@@H](c2cc(Cl)cc(Cl)c2)CC1 [Compound 331, 4-(((cis)-4-(3,5-dichlorophenyl)cyclohexyl)thio)-1H-1,2,3-triazole-5-carboxylic acid]
< 100 | O=C(O)c1[nH]nnc1S[C@H]1CC[C@@H](c2ccc(C(F)(F)F)cc2)CC1 [Compound 332, 4-(((cis)-4-(4-(trifluoromethyl)phenyl)cyclohexyl)thio)-1H-1,2,3-triazole-5-carboxylic acid]
